Test results reported in US20070117743A1, “New antitumoral compounds” (priority 2003, published 2007).

Columns and labels:
Assay type in all cases: cell-based, human
A-549 = assay: SRB colorimetric assay of cell growth and viability, A-549; conditions: 48 hours exposure
SK-MEL-28 = assay: SRB colorimetric assay of cell growth and viability, SK-MEL-28; conditions: 48 hours exposure, SRB
HT-29 = assay: SRB colorimetric assay of cell growth and viability, HT-29; conditions: 48 hours exposure
LoVo = assay: SRB colorimetric assay of cell growth and viability, LoVo; conditions: 48 hours exposure
LoVo-Dox = assay: SRB colorimetric assay of cell growth and viability, LoVo-Dox; conditions: 48 hours exposure
Summary of the method: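 Sulforhodamine B assay run after 48 h of continuous drug contact; cells seeded 5×10^3/well in RPMI 1640 10% FBS, attached 18 h. Triplicate OD490 values give cytostatic (TGI), cytotoxic (LC) and GI parameters.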

DU-145 = assay: SRB colorimetric assay of cell growth and viability, DU-145; conditions: 48 hours exposure, SRB
LNCaP = assay: SRB colorimetric assay of cell growth and viability, LNCaP; conditions: 48 hours exposure, SRB
Source text: The finality of this assay is to interrupt the growth of a “in vitro” tumor cell culture by means a continued exhibition of the cells to the sample to be testing.
This form of the assay employs 96 well cell culture microplates of 9 mm diameter (Faircloth, 1988; Mosmann, 1983). Most of the cell lines are obtained from American Type Culture Collection (ATCC) derived from different human cancer types.
Cells are maintained in RPMI 1640 10% FBS, supplemented with 0.1 g/l penicillin and 0.1 g/l streptomycin sulfate and then incubated at 37° C., 5% CO2 and 98% humidity. For the experiments, cells were harvested from subconfluent cultures using trypsin and resuspended in fresh medium before plating.
Cells are seeded in 96 well microtiter plates, at 5×10^3 cells per well in aliquots of 195 μL medium, and they are allowed to attach to the plate surface by growing in drug free medium for 18 hours. Afterward, samples are added in aliquots of 5 μL in a ranging from 10 to 10^−8 μg/mL, dissolved in DMSO:EtOH:PBS (0.5:0.5:99). After 48 hours exposure, the antitumor effect are measured by the SRB methodology: cells are fixed by adding 50 μL of cold 50% (wt/vol) trichloroacetic acid (TCA) and incubating for 60 minutes at 4° C. Plates are washed with deionized water and dried. One hundred μL of SRB solution (0.4% wt/vol in 1% acetic acid) is added to each microtiter well and incubated for 10 minutes at room temperature. Unbound SRB is removed by washing with 1% acetic acid. Plates are air dried and bound stain is solubilized with Tris buffer. Optical densities are read on a automated spectrophotometric plate reader at a single wavelength of 490 nm.
The values for mean+/− SD of data from triplicate wells are calculated. Some parameters for cellular responses can be calculated: GI=growth inhibition, TGI=total growth inhibition (cytostatic effect) and LC=cell killing (cytotoxic effect).

IGROV-1 = assay: SRB colorimetric assay of cell growth and viability, IGROV-1; conditions: 48 hours exposure, SRB
IGROV-ET = assay: SRB colorimetric assay of cell growth and viability, IGROV-ET; conditions: 48 hours exposure, SRB
HeLa = assay: SRB colorimetric assay of cell growth and viability, HeLa; conditions: 48 hours exposure
HeLa-APL = assay: SRB colorimetric assay of cell growth and viability, HeLa-APL; conditions: 48 hours exposure
K-562 = assay: SRB colorimetric assay of cell growth and viability, K-562; conditions: 48 hours exposure
PANC-1 = assay: SRB colorimetric assay of cell growth and viability, PANC-1; conditions: 48 hours exposure

With `C/C=C1\NC(=O)[C@H](Cc2ccccc2)NC(=O)[C@@H](C(C)C)NC(=O)[C@@H]([C@@H](C)CC)NC(=O)[C@H](NC(=O)[C@H](NC(=O)[C@H](CCCN)NC(=O)[C@@H]2CC[C@H](c3ccccc3)N2C(=O)[C@H](NC(=O)[C@@H](NC(=O)[C@@H](NC(=O)[C@H](NC(=O)CC[C@@H](C)CC)C(C)C)[C@@H](C)O)C(C)C)C(C)C)[C@@H](C)CC)[C@@H](C)OC(=O)[C@H](C(C)C)NC1=O` [Compound 62, [(5R)-Ph-Pro^9, (4S)-MeHex^14]-KF] the “TGI A-549” value (A-549; A-549) was 6.43E−06 Molar, the “TGI MEL-28” value (SK-MEL-28) was 6.43E−06 Molar and the “TGI HT-29” value (HT-29; HT-29) was 6.43E−06 Molar. For the same compound, the “TGI LOVO” value (LoVo; LOVO) was 6.43E−06 Molar, the “TGI LOVO-DOX” value (LoVo-Dox; LOVO-DOX) was 6.43E−06 Molar and the “TGI DU-145” value (DU-145) was 6.43E−06 Molar. The “TGI LN-caP” value (LNCaP) was 6.43E−06 Molar, the “TGI IGROV” value (IGROV-1) was 6.43E−06 Molar and the “TGI IGROV-ET” value (IGROV-ET) was 6.43E−06 Molar. For the same compound, the “TGI HELA” value (HeLa; HELA) was 6.43E−06 Molar, the “TGI HELA-APL” value (HeLa-APL; HELA-APL) was 6.43E−06 Molar and the “TGI K-562” value (K-562; K-562) was 6.43E−06 Molar. The “TGI PANC-1” value (PANC-1; PANC-1) was 6.43E−06 Molar.

`C/C=C1\NC(=O)[C@H](Cc2ccccc2)NC(=O)[C@@H](C(C)C)NC(=O)[C@@H]([C@@H](C)CC)NC(=O)[C@H](NC(=O)[C@H](NC(=O)[C@H](CCCC[N+](C)(C)C)NC(=O)[C@H]2CCCN2C(=O)[C@H](NC(=O)[C@@H](NC(=O)[C@@H](NC(=O)[C@H](NC(=O)CC[C@@H](C)CC)C(C)C)[C@@H](C)O)C(C)C)C(C)C)[C@@H](C)CC)[C@@H](C)OC(=O)[C@H](C(C)C)NC1=O` [Compound 93, [N^ε(Me)3-Lys^8, (4S)-MeHex^14]-KF] was tested, and the “TGI A-549” value (A-549; SRB) was 6.97E−07 Molar, the GI50 (A-549; SRB, read-out: GI50 A-549) was 186 nM and the CC50 (A-549; SRB, read-out: LC50 A-549) was 2440 nM. For the same compound, the GI50 (SK-MEL-28) was 320 nM, the “TGI MEL-28” value (SK-MEL-28) was 9.51E−07 Molar and the CC50 (SK-MEL-28; read-out: LC50 MEL-28) was 2600 nM. The “TGI HT-29” value (HT-29; SRB) was 2.72E−07 Molar, the GI50 (HT-29; SRB, read-out: GI50 HT-29) was 168 nM and the CC50 (HT-29; SRB, read-out: LC50 HT-29) was 439 nM. For the same compound, the GI50 (LoVo; SRB) was 80.8 nM, the “TGI LOVO” value (LoVo; SRB) was 2.08E−07 Molar and the CC50 (LoVo; SRB, read-out: LC50 LOVO) was 537 nM. For the same compound, the GI50 (LoVo-Dox; SRB) was 78.2 nM, the “TGI LOVO-DOX” value (LoVo-Dox; SRB) was 1.82E−07 Molar and the CC50 (LoVo-Dox; SRB, read-out: LC50 LOVO-DOX) was 426 nM. For the same compound, the GI50 (DU-145) was 6.21 nM, the LC50 (concentration causing 50% net cell kill) (DU-145) was 44 nM and the “TGI DU-145” value (DU-145) was 1.66E−08 Molar. The “TGI LN-caP” value (LNCaP) was 2.16E−06 Molar, the GI50 (LNCaP; read-out: GI50 LN-caP) was 795 nM and the CC50 (LNCaP; read-out: LC50 LN-caP) was 5880 nM. The GI50 (IGROV-1) was 214 nM, the LC50 (concentration causing 50% net cell killing) (IGROV-1) was 866 nM and the “TGI IGROV” value (IGROV-1) was 3.90E−08 Molar. The GI50 (IGROV-ET) was 266 nM, the “TGI IGROV-ET” value (IGROV-ET) was 7.17E−07 Molar and the CC50 (IGROV-ET; read-out: LC50 IGROV-ET) was 2490 nM. For the same compound, the GI50 (HeLa; SRB) was 491 nM, the “TGI HELA” value (HeLa; SRB) was 1.25E−06 Molar and the CC50 (HeLa; SRB, read-out: LC50 HELA) was 3250 nM. The GI50 (HeLa-APL; SRB) was 651 nM, the “TGI HELA-APL” value (HeLa-APL; SRB) was 1.43E−06 Molar and the CC50 (HeLa-APL; SRB, read-out: LC50 HELA-APL) was 3150 nM. For the same compound, the GI50 (K-562; SRB) was 1490 nM, the “TGI K-562” value (K-562; SRB) was 2.72E−06 Molar and the CC50 (K-562; SRB, read-out: LC50 K-562) was 4940 nM. The GI50 (PANC-1; SRB) was 1110 nM, the “TGI PANC-1” value (PANC-1; SRB) was 2.08E−06 Molar and the CC50 (PANC-1; SRB, read-out: LC50 PANC-1) was 3900 nM.
